Measurements published in ChEMBL document CHEMBL1129103, “Synthesis and antiviral activity of 2-deoxy-1,5-anhydro-D-mannitol nucleosides containing a pyrimidine base moiety” (1996).
Values after ≈ are worked out from the molar mass of the structure shown.

What was measured:
Type in all cases: functional
Human alphaherpesvirus 3 = assay: Compound was tested for antiherpes activity against Varicella zoster virus(OKA) in HEL cells
Cytomegalovirus = assay: Compound was tested for antiherpes activity against Cytomegalovirus virus(AD 169) in HEL cells; details: Human betaherpesvirus 5
Human alphaherpesvirus 1 = assay: Compound was tested for antiherpes activity against Herpes simplex virus-1(KOS) in E6SM cell cultures
Human alphaherpesvirus 2 = assay: Compound was tested for antiherpes activity against Herpes simplex virus-2(G) in E6SM cell cultures

| SMILES | MIC (Human alphaherpesvirus 3) | MIC (Cytomegalovirus) | MIC (Human alphaherpesvirus 1) | MIC (Human alphaherpesvirus 2) |
| --- | --- | --- | --- | --- |
| O=c1[nH]c(=O)n(C2COC(CO)C(O)C2O)cc1I (stereo not drawn) | > 50 µg/mL | > 50 µg/mL | 7 µg/mL (≈ 18.2 µM) | 70 µg/mL (≈ 182 µM) |
| Nc1ccn(C2COC(CO)C(O)C2O)c(=O)n1 (stereo not drawn) | 10 µg/mL (≈ 38.9 µM) | 10 µg/mL (≈ 38.9 µM) | 70 µg/mL (≈ 272 µM) | 70 µg/mL (≈ 272 µM) |
| O=c1ccn(C2COC(CO)C(O)C2O)c(=O)[nH]1 (stereo not drawn) | > 50 µg/mL | > 50 µg/mL | 150 µg/mL (≈ 581 µM) | > 200 µg/mL |
| Nc1nc2c(ncn2COCCO)c(=O)[nH]1 [ACYCLOVIR] | 0.5 µg/mL (≈ 2.22 µM) |  | 0.004 µg/mL (≈ 0.0178 µM) | 0.004 µg/mL (≈ 0.0178 µM) |
| Nc1nc2c(ncn2COC(CO)CO)c(=O)[nH]1 [GANCICLOVIR] |  | 1 µg/mL (≈ 3.92 µM) | 0.0007 µg/mL (≈ 0.00274 µM) | 0.002 µg/mL (≈ 0.00784 µM) |
